This passage reports pKa and Activity results from ChEMBL document CHEMBL4725319, “Discovery of attenuation effect of orexin 1 receptor to aversion of nalfurafine: Synthesis and evaluation of D-nor-nalfurafine derivatives and analyses of the three active conformations of nalfurafine” (Bioorg Med Chem Lett, 2020).

Molecules are shown by their SMILES. Active and inactive are the calls of the source. The calls are words filed in the database; no cut-off is given here.

By pKa is commonly meant the pH at which an ionisable group is half protonated. A higher pKa goes with a group that holds its proton tightly.

Series [1] in a line: Dissociation constant, pKa of compound. The format is physicochemical.
The test system of series [2] is Mus musculus. The experiment in a line: Analgesic activity in OX1R knock out mouse assessed as increase in wheel running activity at 40 ug/kg. The format is functional, organism-based. As to conditions: dose 40.0 µg/kg.
The test system of series [3] is Mus musculus. The series is described as follows: Analgesic activity in OX1R knock out mouse assessed as increase in wheel running activity at 4 to 10 ug/kg. The format is functional, organism-based. As to conditions: dose microg/kg 4-10.
Series [4] is described as follows: Toxicity in mouse assessed as conditioned place aversion at 10 to 40 microg/kg, sc. As to conditions: in vivo, dose 10-40 µg/kg.
Series [5] is described as follows: Toxicity in dual OX1/2R knock out mouse assessed as increase in conditioned place aversion at 10 to 40 microg/kg, sc. As to conditions: in vivo, dose 10-40 µg/kg.

As for `CN(C(=O)/C=C/c1ccoc1)[C@@H]1CC[C@@]2(O)[C@H]3Cc4ccc(O)c5c4[C@@]2(CCN3CC2CC2)[C@H]1O5` [NALFURAFINE], the pKa in series [1] is 9.4. Also, the result in series [2] was Active. For the same compound, the result in series [3] was inactive. The Activity entry in series [4] was “Non-Toxic”; in series [5], “Toxic”.
